# Literature values in patent US20240269084A1, “DELAYED RELEASE COMPOSITIONS OF DIMETHYL FUMARATE” (Zim Laboratories Limited, priority 2021, published 2024).
# Where a name gives a salt, the structure may show the parent alone.
smiles,measurement,value
"COC(=O)/C=C/C(=O)OC [Dimethyl fumarate, dimethyl (E) butenedioate]",Solubility in water,highly soluble in water
